Tests used:
[1] = molecular target: Protein farnesyltransferase (Homo sapiens, UniProt P49354+P49356); test: In vitro inhibitory activity was evaluated against farnesyltransferase (FTase); format: protein-complex assay
[2] = Area under curve of compound determined in rat after iv administration at a dose of 10 mg/kg; format: ADME, organism-based; parameters: dose 10 mg/kg, route intravenous; conditions: in vivo
[3] = Oral bioavailability of compound determined in rat […] at a dose of 10 mg/kg; format: ADME, organism-based; conditions: in vivo
Canis familiaris = test: Maximum plasma drug concentration of compound determined in dog […] at a dose of 10 mg/kg; format: ADME, organism-based, Canis lupus familiaris; parameters: dose 10 mg/kg, route intravenous; conditions: in vivo
[4] = (§1) Half life of compound determined in rat after iv administration at a dose of 10 mg/kg; format: ADME, organism-based; parameters: dose 10 mg/kg, route intravenous; conditions: in vivo
[5] = Area under curve of compound determined in dog after iv administration at a dose of 10 mg/kg; format: ADME, organism-based, Canis lupus familiaris; parameters: dose 10 mg/kg, route intravenous; conditions: in vivo
[6] = as §1; format: ADME, organism-based; parameters: dose 10 mg/kg, route intravenous; conditions: in vivo; remark: listed apart in the source
Rattus norvegicus = test: Maximum plasma drug concentration of compound determined in rat after iv administration at a dose of 10 mg/kg; format: ADME, organism-based; parameters: dose 10 mg/kg, route intravenous; conditions: in vivo
[7] = Tmax of compound determined in dog […] at a dose of 10 mg/kg; format: ADME, organism-based, Canis lupus familiaris; parameters: dose 10 mg/kg, route intravenous; conditions: in vivo
[8] = Area under curve of compound from zero time to infinity determined in dog […] at a dose of 10 mg/kg; format: ADME, organism-based, Canis lupus familiaris; parameters: time infinity, dose 10 mg/kg, route intravenous; conditions: in vivo
[9] = Oral bioavailability of compound determined in mouse […] at a dose of 10 mg/kg; format: ADME, organism-based; conditions: in vivo
[10] = Tmax of compound determined in rat after iv administration at a dose of 10 mg/kg; format: ADME, organism-based; parameters: dose 10 mg/kg, route intravenous; conditions: in vivo
[11] = Oral bioavailability of compound determined in dog […] at a dose of 10 mg/kg; format: ADME, organism-based, Canis lupus familiaris; conditions: in vivo
[12] = Area under curve of compound from zero time to infinity determined in rat after iv administration at a dose of 10 mg/kg; format: ADME, organism-based; parameters: time infinity, dose 10 mg/kg, route intravenous; conditions: in vivo

SMILES | IC50 [1] [nM] | other results
COc1ccccc1-c1ccc(COCc2ccc(C(=O)N[C@@H](CCSC)C(=O)O)c(-c3ccccc3C)c2)o1 | 20 | –
CSCC[C@H](NC(=O)c1ccc(COCc2ccc(-c3cccc(F)c3)o2)cc1-c1ccccc1C)C(=O)O | 7.6 | –
COc1cccc(-c2ccc(COCc3ccc(C(=O)N[C@@H](CCSC)C(=O)O)c(-c4ccccc4C)c3)o2)c1 | 12 | –
CSCC[C@H](NC(=O)c1ccc(COCc2ccc(-c3ccccc3C(F)(F)F)o2)cc1-c1ccccc1C)C(=O)O | 9.9 | –
CSCC[C@H](NC(=O)c1ccc(COCc2ccc(-c3cccc(C(F)(F)F)c3)o2)cc1-c1ccccc1C)C(=O)O | 8.8 | –
COc1ccc(-c2ccc(COCc3ccc(C(=O)N[C@@H](CCSC)C(=O)O)c(-c4ccccc4C)c3)o2)cc1 | 8.4 | –
CSCC[C@H](NC(=O)c1ccc(COc2ccccc2)cc1-c1ccccc1)C(=O)O | > 1000 | –
CSCC[C@H](NC(=O)c1ccc(COCc2ccc(-c3ccc(C(C)=O)cc3)o2)cc1-c1ccccc1C)C(=O)O | 6.6 | –
CSCC[C@H](NC(=O)c1ccc(CNCc2ccco2)cc1-c1ccccc1)C(=O)O | 560 | –
CSCC[C@H](NC(=O)c1ccc(COCc2ccc(-c3ccccn3)o2)cc1-c1ccccc1C)C(=O)O | 19 | –

More lines, main results first:

IC50 [1] [nM] | SMILES | other results
2.9 | CSCC[C@H](NC(=O)c1ccc(COCc2ccc(-c3ccc(C)cc3)o2)cc1-c1ccccc1C)C(=O)O | –
2.9 | CSCC[C@H](NC(=O)c1ccc(COCc2ccc(-c3ccc(C(C)C)cc3)o2)cc1-c1ccccc1C)C(=O)O | –
0.7 | CSCC[C@H](NC(=O)c1ccc(COCc2ccc(-c3ccc(Cl)cc3)o2)cc1-c1ccccc1C)C(=O)[O-].[Li+] | AUC [2]: 8100 ng·h/mL; bioavailability [3]: 30%; Cmax (Canis familiaris): 713 ng/mL; half-life [4]: 74.4 min; AUC [5]: 4940 ng·h/mL; half-life [6]: 78 min; Cmax (Rattus norvegicus): 1250 ng/mL; Tmax [7]: 24 min; AUC [8]: 1040 ng·h/mL; bioavailability [9]: 32%; Tmax [10]: 42 min; bioavailability [11]: 21.1%; AUC [12]: 2390 ng·h/mL
2.4 | CSCC[C@H](NC(=O)c1ccc(COCc2ccc(-c3ccncc3)o2)cc1-c1ccccc1C)C(=O)O | –
2.6 | CSCC[C@H](NC(=O)c1ccc(COCc2ccc(-c3ccc(N(C)C)cc3)o2)cc1-c1ccccc1C)C(=O)O | –
1.5 | CSCC[C@H](NC(=O)c1ccc(COCc2ccc(-c3ccc(F)cc3)o2)cc1-c1ccccc1C)C(=O)O | –
6.3 | CSCC[C@H](NC(=O)c1ccc(COCc2ccc(-c3ccccc3F)o2)cc1-c1ccccc1C)C(=O)O | –
6.5 | CSCC[C@H](NC(=O)c1ccc(COCc2ccc(-c3cccnc3)o2)cc1-c1ccccc1C)C(=O)O | –
1.2 | CSCC[C@H](NC(=O)c1ccc(COCc2ccc(-c3ccc(C=O)cc3)o2)cc1-c1ccccc1C)C(=O)O | –
6.2 | CSCC[C@H](NC(=O)c1ccc(COCc2ccc(-c3ccc(SC)cc3)o2)cc1-c1ccccc1C)C(=O)O | –
4.9 | CSCC[C@H](NC(=O)c1ccc(COCc2ccc(-c3ccc(Cl)c(F)c3)o2)cc1-c1ccccc1C)C(=O)O | –
6 | CSCC[C@H](NC(=O)c1ccc(COCc2ccc(-c3ccccc3)o2)cc1-c1ccccc1C)C(=O)O | –
3 | CSCC[C@H](NC(=O)c1ccc(COCc2ccc(-c3ccc(C(F)(F)F)cc3)o2)cc1-c1ccccc1C)C(=O)O | –
6 | CSCC[C@H](NC(=O)c1ccc(COCc2ccc(-c3cccc([N+](=O)[O-])c3)o2)cc1-c1ccccc1C)C(=O)O | –
3 | COC(=O)[C@H](CCSC)NC(=O)c1ccc(COCc2ccc(Br)o2)cc1-c1ccccc1C | –

Source: ChEMBL document CHEMBL1131673, “Potent and orally bioavailable noncysteine-containing inhibitors of protein farnesyltransferase” (Bioorg Med Chem Lett, 1999)
